Values joined by “and” are separate entries in the source; they are usually repeats but may differ in a detail not shown here. Equal entries are not always repeated.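 Cultured in 96-well plates, cells were exposed to test compound for 48 hours across five concentrations. GI50 is the concentration that inhibits growth by half. TGI is the concentration that stops growth completely.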
Columns and labels:
Test in all cases: NCI-60 cell line screen, 48 h
[1] = system: 786-0 renal
[2] = system: A498 renal
[3] = system: A549 NSCLC
[4] = system: ACHN renal
[5] = system: BT-549 breast
[6] = system: CAKI-1 renal
[7] = system: CCRF-CEM leukemia
[8] = system: COLO 205 colon
[9] = system: DU-145 prostate
[10] = system: EKVX NSCLC
[11] = system: HCC-2998 colon
[12] = system: HCT-116 colon
[13] = system: HCT-15 colon
[14] = system: HL-60(TB) leukemia
[15] = system: HOP-62 NSCLC
[16] = system: HOP-92 NSCLC
[17] = system: HS 578T breast
[18] = system: HT29 colon
[19] = system: IGROV1 ovarian
[20] = system: K-562 leukemia
[21] = system: KM12 colon
[22] = system: LOX IMVI melanoma
[23] = system: M14 melanoma
[24] = system: MALME-3M melanoma
[25] = system: MCF7 breast
[26] = system: MDA-MB-231 breast
[27] = system: MDA-MB-435
[28] = system: MDA-N
[29] = system: MOLT-4 leukemia
[30] = system: NCI-H226 lung
[31] = system: NCI-H23 lung
[32] = system: NCI-H460 lung
[33] = system: NCI-H522 lung
[34] = system: NCI/ADR-RES ovarian
[35] = system: OVCAR-3 ovarian
[36] = system: OVCAR-4 ovarian
[37] = system: OVCAR-5 ovarian
[38] = system: OVCAR-8 ovarian
[39] = system: PC-3 prostate
[40] = system: RPMI-8226 leukemia
[41] = system: RXF 393 renal
[42] = system: SF-268 CNS
[43] = system: SF-295 CNS
[44] = system: SF-539 CNS
[45] = system: SK-MEL-2 melanoma
[46] = system: SK-MEL-28 melanoma
[47] = system: SK-MEL-5 melanoma
[48] = system: SK-OV-3 ovarian
[49] = system: SN12C renal
[50] = system: SNB-19 CNS
[51] = system: SNB-75 CNS
[52] = system: SR leukemia
[53] = system: SW-620 colon
[54] = system: T-47D breast
[55] = system: TK-10 renal
[56] = system: U251 CNS
[57] = system: UACC-257 melanoma
[58] = system: UACC-62 melanoma
[59] = system: UO-31 renal
[60] = system: DLD-1 colon
[61] = system: DMS 114 small cell lung
[62] = system: DMS 273 small cell lung
[63] = system: KM20L2 colon
[64] = system: LXFL 529 NSCLC
[65] = system: M19-MEL melanoma
[66] = system: SNB-78 CNS
[67] = system: HOP-18 NSCLC
[68] = system: XF 498 CNS

## O=C1/C(=C/c2ccccc2F)CNC/C1=C\c1ccccc1F
[1]
  GI50: 233 nM and 739 nM
  TGI: 505 nM and 2150 nM
[2]
  GI50: 194 nM and 1520 nM
  TGI: 978 nM and 2980 nM
[3]
  GI50: 1810 nM and 1270 nM
  TGI: 9350 nM and 5590 nM
[4]
  GI50: 4860 nM and 779 nM
  TGI: 8550 nM and 2580 nM
[5]
  GI50: 434 nM and 782 nM
  TGI: 1430 nM and 2250 nM
[6]
  GI50: 676 nM and 611 nM
  TGI: 3710 nM and 2160 nM
[7]
  GI50: 193 nM and 314 nM
  TGI: 3380 nM and 1610 nM
[8]
  GI50: 820 nM and 584 nM
  TGI: 2570 nM and 1820 nM
[9]
  GI50: 642 nM and 710 nM
  TGI: 2050 nM and 2010 nM
[10]
  GI50: 775 nM and 1900 nM
  TGI: 2580 nM and 5260 nM
[11]
  GI50: 1130 nM and 359 nM
  TGI: 2380 nM and 1160 nM
[12]
  GI50: 224 nM and 177 nM
  TGI: 549 nM and 341 nM
[13]
  GI50: 196 nM and 291 nM
  TGI: 511 nM and 1160 nM
[14]
  GI50: 371 nM and 2040 nM
  TGI: 1960 nM and 6920 nM
[15]
  GI50: 530 nM and 330 nM
  TGI: 2650 nM and 1010 nM
[16]
  GI50: 2820 nM and 1920 nM
  TGI: 7370 nM and 4710 nM
[17]
  GI50: 533 nM and 4110 nM
[18]
  GI50: 261 nM and 242 nM
  TGI: 1170 nM and 543 nM
[19]
  GI50: 809 nM and 1200 nM
  TGI: 2490 nM and 3190 nM
[20]
  GI50: 270 nM and 341 nM
  TGI: 2270 nM and 2630 nM
[21]
  GI50: 189 nM and 197 nM
  TGI: 519 nM and 390 nM
[22]
  GI50: 318 nM and 186 nM
  TGI: 1220 nM and 461 nM
[23]
  GI50: 1160 nM and 1200 nM
  TGI: 3730 nM and 2840 nM
[24]
  GI50: 2260 nM and 1830 nM
  TGI: 6380 nM and 4510 nM
[25]
  GI50: 305 nM
  TGI: 1390 nM
[26]
  GI50: 1180 nM and 653 nM
  TGI: 3170 nM and 2360 nM
[27]
  GI50: 482 nM and 472 nM
  TGI: 1460 nM and 1920 nM
[28]
  GI50: 485 nM
  TGI: 1710 nM
[29]
  GI50: 425 nM and 738 nM
  TGI: 1760 nM and 3130 nM
[30]
  GI50: 3150 nM and 1460 nM
  TGI: 10700 nM and 3910 nM
[31]
  GI50: 693 nM and 838 nM
  TGI: 1810 nM and 3270 nM
[32]
  GI50: 693 nM and 458 nM
  TGI: 3290 nM and 3300 nM
[33]
  GI50: 772 nM and 1300 nM
  TGI: 2730 nM and 2800 nM
[34]
  GI50: 665 nM and 699 nM
  TGI: 6570 nM and 12800 nM
[35]
  GI50: 890 nM and 309 nM
  TGI: 3220 nM and 805 nM
[36]
  GI50: 596 nM and 385 nM
  TGI: 2980 nM and 1810 nM
[37]
  GI50: 935 nM and 1910 nM
  TGI: 2340 nM and 3960 nM
[38]
  GI50: 338 nM and 369 nM
  TGI: 4270 nM and 2910 nM
[39]
  GI50: 295 nM and 551 nM
  TGI: 1070 nM and 3200 nM
[40]
  GI50: 191 nM and 220 nM
  TGI: 697 nM and 563 nM
[41]
  GI50: 385 nM and 728 nM
  TGI: 1120 nM and 1870 nM
[42]
  GI50: 620 nM and 309 nM
  TGI: 5370 nM and 1210 nM
[43]
  GI50: 707 nM and 531 nM
  TGI: 3500 nM and 1710 nM
[44]
  GI50: 269 nM and 870 nM
  TGI: 828 nM and 2990 nM
[45]
  GI50: 2530 nM and 2770 nM
  TGI: 6180 nM and 6460 nM
[46]
  GI50: 2020 nM and 1790 nM
  TGI: 4700 nM and 3630 nM
[47]
  GI50: 1220 nM and 1590 nM
  TGI: 2850 nM and 3050 nM
[48]
  GI50: 1680 nM and 1580 nM
  TGI: 4010 nM and 3120 nM
[49]
  GI50: 837 nM and 783 nM
  TGI: 2050 nM and 2810 nM
[50]
  GI50: 643 nM and 1010 nM
  TGI: 2660 nM and 3990 nM
[51]
  GI50: 2000 nM and 1540 nM
  TGI: 4740 nM and 4330 nM
[52]
  GI50: 77.2 nM and 245 nM
  TGI: 361 nM and 813 nM
[53]
  GI50: 236 nM and 245 nM
  TGI: 3490 nM and 647 nM
[54]
  GI50: 1070 nM and 2600 nM
  TGI: 6100 nM and 12200 nM
[55]
  GI50: 2920 nM and 1510 nM
  TGI: 8480 nM and 3500 nM
[56]
  GI50: 165 nM
  TGI: 362 nM and 372 nM
[57]
  GI50: 1620 nM and 1730 nM
  TGI: 4160 nM and 3950 nM
[58]
  GI50: 6380 nM and 1500 nM
  TGI: 10300 nM and 3720 nM
[59]
  GI50: 567 nM and 753 nM
  TGI: 1800 nM and 2050 nM

## COC(=O)C1=C(C(=O)OC)C2C(C)=CC(C)=CN2C(C#N)=C(SC)S1 (centres undefined)
[1]
  TGI: 73200 nM
[3]
  TGI: > 100000 nM
[4]
  TGI: 60500 nM
[6]
  TGI: 41500 nM
[7]
  TGI: 56500 nM
[8]
  TGI: 34400 nM
[60]
  TGI: 49200 nM
[61]
  TGI: 54700 nM
[62]
  TGI: > 100000 nM
[10]
  TGI: 64900 nM
[11]
  TGI: 94500 nM
[12]
  TGI: 29600 nM
[13]
  TGI: 44000 nM
[14]
  TGI: 42700 nM
[15]
  TGI: > 100000 nM
[18]
  TGI: 44600 nM
[20]
  TGI: 55300 nM
[63]
  TGI: 86700 nM
[22]
  TGI: 35400 nM
[64]
  TGI: 37600 nM
[23]
  TGI: 35200 nM
[65]
  TGI: 33800 nM
[24]
  TGI: 48300 nM
[29]
  TGI: 77300 nM
[30]
  TGI: 39900 nM
[31]
  TGI: 36400 nM
[32]
  TGI: > 100000 nM
[33]
  TGI: 46700 nM
[35]
  TGI: 72700 nM
[37]
  TGI: 84700 nM
[38]
  TGI: 65900 nM
[40]
  TGI: 64100 nM
[41]
  TGI: 30600 nM
[42]
  TGI: 56800 nM
[43]
  TGI: > 100000 nM
[44]
  TGI: 61400 nM
[45]
  TGI: 45800 nM
[46]
  TGI: 41800 nM
[47]
  TGI: 30700 nM
[48]
  TGI: > 100000 nM
[49]
  TGI: 52600 nM
[50]
  TGI: > 100000 nM
[51]
  TGI: > 100000 nM
[66]
  TGI: > 100000 nM
[52]
  TGI: 50500 nM
[53]
  TGI: 42700 nM
[55]
  TGI: 69800 nM
[56]
  TGI: > 100000 nM
[57]
  TGI: 64300 nM
[59]
  TGI: 26800 nM

## COc1cc(Cl)cc(N(O)C(C)=O)c1OCc1ccccc1
[1]
  TGI: > 100000 nM
[2]
  TGI: > 100000 nM
[3]
  TGI: > 100000 nM
[4]
  TGI: > 100000 nM
[6]
  TGI: > 100000 nM
[7]
  TGI: > 100000 nM
[8]
  TGI: > 100000 nM
[60]
  TGI: > 100000 nM
[61]
  TGI: 71500 nM
[62]
  TGI: > 100000 nM
[10]
  TGI: > 100000 nM
[11]
  TGI: > 100000 nM
[12]
  TGI: > 100000 nM
[13]
  TGI: > 100000 nM
[14]
  TGI: > 100000 nM
[67]
  TGI: > 100000 nM
[15]
  TGI: > 100000 nM
[16]
  TGI: > 100000 nM
[18]
  TGI: > 100000 nM
[19]
  TGI: > 100000 nM
[20]
  TGI: > 100000 nM
[21]
  TGI: > 100000 nM
[63]
  TGI: > 100000 nM
[22]
  TGI: > 100000 nM
[64]
  TGI: > 100000 nM
[23]
  TGI: > 100000 nM
[65]
  TGI: > 100000 nM
[24]
  TGI: > 100000 nM
[29]
  TGI: > 100000 nM
[30]
  TGI: > 100000 nM
[31]
  TGI: > 100000 nM
[32]
  TGI: > 100000 nM
[33]
  TGI: > 100000 nM
[35]
  TGI: > 100000 nM
[36]
  TGI: > 100000 nM
[37]
  TGI: > 100000 nM
[38]
  TGI: > 100000 nM
[40]
  TGI: > 100000 nM
[41]
  TGI: > 100000 nM
[42]
  TGI: > 100000 nM
[43]
  TGI: > 100000 nM
[44]
  TGI: > 100000 nM
[46]
  TGI: > 100000 nM
[47]
  TGI: > 100000 nM
[48]
  TGI: > 100000 nM
[49]
  TGI: > 100000 nM
[50]
  TGI: > 100000 nM
[51]
  TGI: 76400 nM
[66]
  TGI: > 100000 nM
[52]
  TGI: > 100000 nM
[53]
  TGI: > 100000 nM
[55]
  TGI: > 100000 nM
[56]
  TGI: > 100000 nM
[57]
  TGI: > 100000 nM
[58]
  TGI: > 100000 nM
[59]
  TGI: > 100000 nM
[68]
  TGI: > 100000 nM
